Experimental data published in the supplement of paper PMC11451515.

Test system: SEM cells
Test: cell viability relative to DMSO control; higher = less cytotoxic
Conditions: 48 h
Outline: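 Library compounds in DMSO were pin-dosed in an 11-point threefold series (47 μM to 0.79 nM) onto leukemia cells in 1536-well plates (5 μl). Plates held 500 cells/well of NOMO1 or SEM or 1000 cells/well of P12-Ichikawa, each adapted for at least four passages in each medium. Luminescence was read with CellTiter-Glo One after 48 h at 37°C. Viability means the per-plate percentage relative to DMSO wells, using cell-free wells as background.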

[1] = HPLM + 10% dialyzed FBS, 0.000781 µM
[2] = HPLM + 10% dialyzed FBS, 0.00234 µM
[3] = HPLM + 10% dialyzed FBS, 0.00702 µM
[4] = HPLM + 10% dialyzed FBS, 0.0211 µM
[5] = HPLM + 10% dialyzed FBS, 0.0632 µM
[6] = HPLM + 10% dialyzed FBS, 0.19 µM
[7] = HPLM + 10% dialyzed FBS, 0.569 µM
[8] = HPLM + 10% dialyzed FBS, 1.71 µM
[9] = HPLM + 10% dialyzed FBS, 5.12 µM
[10] = HPLM + 10% dialyzed FBS, 15.4 µM
[11] = HPLM + 10% dialyzed FBS, 46.1 µM
[12] = RPMI 5 mM glucose + 10% FBS, 0.000781 µM
[13] = RPMI 5 mM glucose + 10% FBS, 0.00234 µM
[14] = RPMI 5 mM glucose + 10% FBS, 0.00702 µM
[15] = RPMI 5 mM glucose + 10% FBS, 0.0211 µM
[16] = RPMI 5 mM glucose + 10% FBS, 0.0632 µM
[17] = RPMI 5 mM glucose + 10% FBS, 0.19 µM
[18] = RPMI 5 mM glucose + 10% FBS, 0.569 µM
[19] = RPMI 5 mM glucose + 10% FBS, 1.71 µM
[20] = RPMI 5 mM glucose + 10% FBS, 5.12 µM
[21] = RPMI 5 mM glucose + 10% FBS, 15.4 µM
[22] = RPMI 5 mM glucose + 10% FBS, 46.1 µM
[23] = RPMI 5 mM glucose + 10% dialyzed FBS, 0.000781 µM
[24] = RPMI 5 mM glucose + 10% dialyzed FBS, 0.00234 µM
[25] = RPMI 5 mM glucose + 10% dialyzed FBS, 0.00702 µM
[26] = RPMI 5 mM glucose + 10% dialyzed FBS, 0.0211 µM
[27] = RPMI 5 mM glucose + 10% dialyzed FBS, 0.0632 µM
[28] = RPMI 5 mM glucose + 10% dialyzed FBS, 0.19 µM
[29] = RPMI 5 mM glucose + 10% dialyzed FBS, 0.569 µM
[30] = RPMI 5 mM glucose + 10% dialyzed FBS, 1.71 µM
[31] = RPMI 5 mM glucose + 10% dialyzed FBS, 5.12 µM
[32] = RPMI 5 mM glucose + 10% dialyzed FBS, 15.4 µM
[33] = RPMI 5 mM glucose + 10% dialyzed FBS, 46.1 µM

Compound | cell viability [1] [%] | cell viability [2] [%] | cell viability [3] [%] | cell viability [4] [%] | cell viability [5] [%] | cell viability [6] [%] | cell viability [7] [%] | cell viability [8] [%] | cell viability [9] [%] | cell viability [10] [%] | cell viability [11] [%] | cell viability [12] [%] | cell viability [13] [%] | cell viability [14] [%] | cell viability [15] [%] | cell viability [16] [%] | cell viability [17] [%] | cell viability [18] [%] | cell viability [19] [%] | cell viability [20] [%] | cell viability [21] [%] | cell viability [22] [%] | cell viability [23] [%] | cell viability [24] [%] | cell viability [25] [%] | cell viability [26] [%] | cell viability [27] [%] | cell viability [28] [%] | cell viability [29] [%] | cell viability [30] [%] | cell viability [31] [%] | cell viability [32] [%] | cell viability [33] [%]
Cc1cccc(Nc2nc(N[C@@H]3CCCC[C@@H]3N)ncc2C(N)=O)c1 | 109 | 107 | 112 | 104 | 107 | 118 | 114 | 88.6 | 44 | 30.9 | 32.3 | 66.2 | 80.1 | 78 | 79.7 | 69.8 | 89.4 | 87.1 | 74.2 | 33.8 | 11.5 | 14.5 | 95.7 | 126 | 104 | 112 | 103 | 114 | 96.2 | 81.1 | 25.6 | 23.3 | 25
Cc1n[nH]c(C)c1Cc1sc2c(c1C(=O)N1C[C@H](O)CO1)c(=O)n(C)c(=O)n2CC(C)C | 81.6 | 102 | 90.5 | 105 | 80.3 | 79.3 | 67.7 | 68 | 62.2 | 58.4 | 43.4 | 110 | 111 | 116 | 122 | 98.2 | 106 | 89.1 | 85.2 | 87.9 | 85.9 | 63.5 | 97.8 | 105 | 108 | 103 | 96.2 | 88.8 | 103 | 93.1 | 87.4 | 85 | 74.8
COc1cc2nc(N3CCN(C(=O)c4ccco4)CC3)nc(N)c2cc1OC | 54.4 | 61.9 | 81.8 | 86.4 | 89.7 | 85.8 | 73 | 91.9 | 87 | 16.4 | 13.6 | 76.2 | 78.4 | 90.6 | 80.6 | 104 | 96.2 | 98.4 | 101 | 105 | 13.5 | 8.2 | 78.2 | 88.3 | 93.8 | 104 | 109 | 81.2 | 91 | 91.4 | 80.2 | 14 | 11.9
COC1=CC2=C(C=C1CC3=C(F)C(=CC=C3)Cl)C(=O)\C(=C/N2[C@H](CO)C(C)C)C(O)=O | 120 | 120 | 119 | 26.7 | 115 | 133 | 113 | 106 | 117 | 93.7 | 23.7 | – | – | – | – | – | – | – | – | – | – | – | – | – | – | – | – | – | – | – | – | – | –
NC(=O)Cc1cccc(C(=O)c2ccccc2)c1N | 73 | 99.4 | 96.9 | 39.7 | 113 | 115 | 109 | 99.6 | 96 | 101 | 104 | 95.7 | 38.4 | 90.7 | 33.4 | 101 | 95.2 | 95 | 107 | 95.5 | 88.8 | 85.1 | 44.3 | 78.3 | 101 | 43.1 | 97.4 | 107 | 103 | 112 | 95.4 | 105 | 85.2
COc1ccc(CC2SC(=O)NC2=O)cc1C(=O)NCc1ccc(C(F)(F)F)cc1 (stereo unspecified) | 75 | 82.5 | 79 | 82.5 | 73.6 | 92.5 | 76.9 | 83.2 | 95.9 | 79.2 | 40.4 | 90 | 86.8 | 101 | 84.1 | 79.8 | 109 | 96.5 | 106 | 101 | 89.9 | 45.2 | 88 | 88.8 | 88.4 | 87.6 | 77.6 | 98.8 | 93.8 | 97.4 | 38.6 | 83.6 | 56.1
CON(C)C(=O)N1\N=C(/S[C@]1(CCCN)C2=CC=CC=C2)C3=CC(=CC=C3F)F | 23.7 | 22.9 | 24.5 | 28.8 | 26.4 | 27.4 | 30.7 | 27 | 29.9 | 31.7 | 24.8 | 20.8 | 20.4 | 20.1 | 22.6 | 22.8 | 21.5 | 25.6 | 18.8 | 21.3 | 20.4 | 23.8 | 21.2 | 21.1 | 19.9 | 21 | 21.3 | 23.2 | 23.2 | 24.6 | 23.9 | 20.6 | 21.6
NCC/1=C/NC(=S)N1[C@H]2CCC3=C(F)C=C(F)C=C3C2 | 102 | 107 | 110 | 109 | 93.3 | 102 | 105 | 120 | 99.5 | 94.5 | 43.8 | 118 | 122 | 123 | 119 | 112 | 114 | 120 | 115 | 115 | 108 | 15.4 | – | – | – | – | – | – | – | – | – | – | –
